Source: ChEMBL document CHEMBL3871302, “Synthesis of novel steroidal agonists, partial agonists, and antagonists for the glucocorticoid receptor” (Bioorg Med Chem Lett, 2017)
Activity calls are given as the source filed them. No cut-off for these calls is given here.

What was measured:
Format in all cases: cell-based
[1] = molecular target: T1, Glucocorticoid receptor (Homo sapiens) (UniProt P04150); assay: (§1) Agonist activity at GR in human HepG2 cells assessed as protein mediated-transcriptional activity by MMTV-promoter driven luciferase reporter gene assay
T1 sequence (whole entry): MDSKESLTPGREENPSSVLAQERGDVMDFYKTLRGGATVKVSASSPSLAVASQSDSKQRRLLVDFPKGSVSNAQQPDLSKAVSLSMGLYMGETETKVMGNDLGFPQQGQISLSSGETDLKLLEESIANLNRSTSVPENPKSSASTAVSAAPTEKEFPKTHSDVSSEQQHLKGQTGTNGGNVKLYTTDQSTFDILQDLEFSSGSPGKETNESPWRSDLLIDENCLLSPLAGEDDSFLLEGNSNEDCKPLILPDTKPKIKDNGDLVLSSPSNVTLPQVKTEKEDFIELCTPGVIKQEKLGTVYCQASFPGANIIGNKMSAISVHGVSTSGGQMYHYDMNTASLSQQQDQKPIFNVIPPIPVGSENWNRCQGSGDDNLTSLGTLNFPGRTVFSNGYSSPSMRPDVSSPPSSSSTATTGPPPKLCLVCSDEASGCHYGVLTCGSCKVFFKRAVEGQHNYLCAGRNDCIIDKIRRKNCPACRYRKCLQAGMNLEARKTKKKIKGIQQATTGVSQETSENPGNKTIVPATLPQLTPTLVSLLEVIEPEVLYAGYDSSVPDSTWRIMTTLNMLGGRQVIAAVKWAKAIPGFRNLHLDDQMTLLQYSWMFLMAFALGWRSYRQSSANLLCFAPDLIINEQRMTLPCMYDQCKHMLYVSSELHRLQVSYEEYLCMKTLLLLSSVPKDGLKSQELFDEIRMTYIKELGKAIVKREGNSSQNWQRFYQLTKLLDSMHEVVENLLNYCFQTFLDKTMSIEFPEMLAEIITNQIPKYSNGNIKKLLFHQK

[2] = molecular target: T1, Glucocorticoid receptor (Homo sapiens); assay: (§2) Antagonist activity at GR in human HepG2 cells assessed as inhibition of protein mediated-transcriptional activity by MMTV-promoter driven luciferase reporter gene assay
[3] = molecular target: T2, Glucocorticoid receptor (Mus musculus) (UniProt P06537); assay: Antagonist activity at GR in mouse C2C12 cells assessed as increase in LPS-induced IL6 production by alphaLISA assay relative to control; design: scale not given: the % may be the effect or the level left
T2 sequence (whole entry): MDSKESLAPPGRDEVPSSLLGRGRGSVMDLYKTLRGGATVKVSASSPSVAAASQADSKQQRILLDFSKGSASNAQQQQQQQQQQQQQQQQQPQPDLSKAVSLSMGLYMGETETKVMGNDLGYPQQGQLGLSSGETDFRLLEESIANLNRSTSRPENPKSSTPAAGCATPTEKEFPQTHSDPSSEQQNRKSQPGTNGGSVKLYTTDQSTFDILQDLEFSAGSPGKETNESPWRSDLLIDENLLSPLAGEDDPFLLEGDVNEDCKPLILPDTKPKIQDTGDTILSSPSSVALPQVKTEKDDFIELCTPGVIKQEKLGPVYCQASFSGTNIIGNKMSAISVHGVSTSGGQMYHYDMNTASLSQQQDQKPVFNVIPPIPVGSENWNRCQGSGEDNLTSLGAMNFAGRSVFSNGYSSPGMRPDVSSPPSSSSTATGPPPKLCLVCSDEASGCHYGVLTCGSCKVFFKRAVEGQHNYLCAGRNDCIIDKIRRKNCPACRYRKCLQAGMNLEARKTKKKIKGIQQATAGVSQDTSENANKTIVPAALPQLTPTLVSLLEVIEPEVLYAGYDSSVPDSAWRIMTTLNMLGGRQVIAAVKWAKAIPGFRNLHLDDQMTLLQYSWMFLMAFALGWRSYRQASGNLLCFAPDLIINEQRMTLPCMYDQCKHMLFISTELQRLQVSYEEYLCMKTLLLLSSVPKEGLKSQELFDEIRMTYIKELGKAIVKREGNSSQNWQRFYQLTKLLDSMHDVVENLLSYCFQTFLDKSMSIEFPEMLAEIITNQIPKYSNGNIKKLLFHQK

[4] = molecular target: T2, Glucocorticoid receptor (Mus musculus); assay: Agonist activity at GR in mouse C2C12 cells assessed as suppression of LPS-induced IL6 production by alphaLISA assay
Glucocorticoid receptor [5] = molecular target: T3, Glucocorticoid receptor (Homo sapiens, UniProt P04150); assay: as §2
T3 sequence (P04150 whole entry): T1 sequence (whole entry)

Glucocorticoid receptor [6] = molecular target: T3, Glucocorticoid receptor; assay: as §1
[7] = molecular target: T1, Glucocorticoid receptor (Homo sapiens); assay: Antagonist activity at GR in human HepG2 cells assessed as inhibition of protein mediated-transcriptional activity at 10 uM by MMTV-promoter driven luciferase reporter gene assay

Row | Efficacy [1] [%] | Efficacy [2] [%] | Activity [3] | Activity [4] | IC50 (Glucocorticoid receptor [5]) [nM] | EC50 (Glucocorticoid receptor [6]) [nM] | Efficacy [7] [%] | Compound
1 | -0.5 | 112 | Active |  |  |  |  | Cc1ncccc1NC(=O)c1ccc2c(c1)CC[C@@H]1[C@@H]2[C@@H](O)C[C@@]2(C)[C@H]1CC[C@]2(C)O
2 | 19.4 | 55 |  | Active |  |  |  | CC#C[C@]1(O)CC[C@H]2[C@@H]3CCc4cc(C(=O)Nc5cccnc5C)ccc4[C@H]3[C@H](O)C[C@@]21C
3 | 0.2 | -0.3 |  | Active | 0.9 |  |  | CC#C[C@]1(O)CC[C@H]2[C@@H]3CCc4cc(C(=O)Nc5cccnc5C)ccc4[C@H]3[C@@H](OCc3cccc(Cl)c3)C[C@@]21C
4 | 67 | 73 |  | Active |  | 0.05 |  | CC#C[C@]1(O)CC[C@H]2[C@@H]3CCc4cc(C(=O)Nc5cccnc5C)ccc4[C@H]3[C@@H](OCC)C[C@@]21C
5 | -0.1 |  | Active |  |  |  | 22 | CC#C[C@]1(O)CC[C@H]2[C@@H]3CCc4cc(C(=O)Nc5cncc(C)c5)ccc4[C@H]3[C@@H](O)C[C@@]21C
6 | 56 | 74 | Active |  | 2350 | 100 |  | CCCCC#C[C@]1(O)CC[C@H]2[C@@H]3CCc4cc(C(=O)Nc5cccnc5C)ccc4[C@H]3[C@@H](O)C[C@@]21C
7 | 0.6 | 1.7 |  | Active | 1.4 |  |  | CC#C[C@]1(O)CC[C@H]2[C@@H]3CCc4cc(C(=O)Nc5cccnc5C)ccc4[C@H]3[C@@H](OCc3ccccc3Cl)C[C@@]21C
8 | -0.2 | 0.06 |  | Active | 0.07 |  |  | CC#C[C@]1(O)CC[C@H]2[C@@H]3CCc4cc(C(=O)Nc5cccnc5C)ccc4[C@H]3[C@@H](OCc3ccc(Cl)cc3)C[C@@]21C
9 | 71 | 84 |  | Active |  | 0.04 |  | CC#C[C@]1(O)CC[C@H]2[C@@H]3CCc4cc(C(=O)Nc5cccnc5C)ccc4[C@H]3[C@@H](OC)C[C@@]21C
10 | 110 | 90 | Active |  |  | 47 |  | Cc1ncccc1NC(=O)c1ccc2c(c1)CC[C@@H]1[C@@H]2[C@@H](O)C[C@@]2(C)[C@H]1CC[C@@]2(O)C#C[Si](C)(C)C
11 | 12 | 23 | Active |  | 1360 | 149 |  | CC#C[C@]1(O)CC[C@H]2[C@@H]3CCc4cc(C(=O)Nc5ccncc5C)ccc4[C@H]3[C@@H](O)C[C@@]21C
12 | 35 | 46 |  | Active | 626 | 265 |  | CC#C[C@]1(O)CC[C@H]2[C@@H]3CCc4cc(C(=O)Nc5cccnc5C)ccc4[C@H]3[C@@H](O)C[C@@]21C
13 | -0.4 | -0.1 |  | Active | 0.4 |  |  | CC#C[C@]1(O)CC[C@H]2[C@@H]3CCc4cc(C(=O)Nc5cccnc5C)ccc4[C@H]3[C@@H](OCc3ccccc3)C[C@@]21C
14 | 73 | 147 |  | Active |  | 240 |  | CC#C[C@]1(O)CC[C@H]2[C@@H]3CCc4cc(C(=O)Nc5cnccc5C)ccc4[C@H]3[C@@H](O)C[C@@]21C
15 | 28 | 39 | Active |  | 37 | > 5000 |  | Cc1ncccc1NC(=O)c1ccc2c(c1)CC[C@@H]1[C@@H]2[C@@H](O)C[C@@]2(C)[C@H]1CC[C@@]2(O)C#CC(C)C
16 | 2.4 | -0.7 |  | Active | 84 |  |  | C=CCOC(=O)O[C@H]1C[C@@]2(C)[C@@H](CC[C@@]2(O)C#CC)[C@@H]2CCc3cc(C(=O)Nc4cccnc4C)ccc3[C@H]21
17 | 3.2 | 96 | Active |  |  |  |  | C#C[C@]1(O)CC[C@H]2[C@@H]3CCc4cc(C(=O)Nc5cccnc5C)ccc4[C@H]3[C@@H](O)C[C@@]21C
18 | 92 | 239 |  | Active |  | 280 |  | CC#C[C@]1(O)CC[C@H]2[C@@H]3CCc4cc(C(=O)Nc5ncccc5C)ccc4[C@H]3[C@@H](O)C[C@@]21C
19 | 51.6 | 30.6 |  | Active |  | 1860 |  | CC#C[C@]1(O)CC[C@H]2[C@@H]3CCc4cc(C(=O)Nc5cccnc5C)ccc4C3=CC[C@@]21C
20 | 0.4 | 85 | Active |  |  |  |  | Cc1ncccc1NC(=O)c1ccc2c(c1)CC[C@@H]1[C@@H]2[C@@H](O)C[C@]2(C)[C@@H](O)CC[C@@H]12
21 | 56 | 57 |  | Active | 0.03 | 0.11 |  | C=CCO[C@H]1C[C@@]2(C)[C@@H](CC[C@@]2(O)C#CC)[C@@H]2CCc3cc(C(=O)Nc4cccnc4C)ccc3[C@H]21
22 | 2.1 | 1.4 | Active |  | 558 |  |  | Cc1ncccc1NC(=O)c1ccc2c(c1)CC[C@@H]1[C@@H]2[C@@H](O)C[C@@]2(C)[C@H]1CC[C@@]2(O)C#Cc1ccccc1
23 | 0.2 | 10 | 50% |  | 455 |  |  | CC#C[C@]1(O)CC[C@H]2[C@@H]3CCc4cc(C(=O)Nc5cccnc5)ccc4[C@H]3[C@@H](O)C[C@@]21C
